In patent US10882856B2 (BeiGene, Ltd., priority 2017, dated 2021) one finds EC50 and IC50 data, which are given here for two compounds.

Read-outs that look alike come from different tables or passages of the source.

Experiment [1] concerns the target T1, cellular IDO1 in HeLa cells (Homo sapiens, UniProt P14902).
T1 construct: endogenous in cells; host or cells: HeLa (ATCC), induced with human recombinant IFN-γ
The experiment in a line: HeLa cell-based IDO1 Kyn (kynurenine) production assay. As to conditions: IDO1 induced by IFN-γ, 48 hours, read-out: cell-based EC50 value (IDO1 expressed Hela cells). How it is done:
HeLa Cell-Based IDO1 Kyn (Kynurenine) Production Assay:
The inhibitory activity of IDO1 inhibitors is determined by using a colorimetric reaction to measure Kyn generated from L-Trp (L-Tryptophon) oxidation by cellular IDO1 in HeLa cells after induction of IDO1 expression by IFN-γ.
Hela cells were obtained from the American Type Culture Collection and recovered in 10% FBS-containing phenol red-free DMEM medium. Cells were plated onto a 96-well plate (100 μl/well) at 8000 cells per well and kept at 37° C. in a humidified incubator supplied with 5% CO2 4 hours later, Human recombinant IFN-γ (8901SC, CST) was added to cells (final concentration 100 ng/mL) to stimulate endogenous IDO11. Compounds at different concentrations diluted in dimethylsulfoxide (DMSO) were added simultaneously with IFN-γ and 0.4 mM L-Trp. Cells were kept at 37° C. in a humidified incubator supplied with 5% CO2. After 48 hours of incubation, 100 μl supernatant from each well was removed to a new plate. The protein in the medium was precipitated with the addition of 8 μl 6N trichloroacetic acid. The plate was incubated at 60° C. for 30 minutes and then centrifugation at 2500 rpm for 10 minutes to remove sediments. […] The absorbance at 480 nm wavelength derived from Kyn was measured using a PHERAstar FS plate reader (BMG LABTECH). […]

For experiment [2], the target named is T2, TDO2 in 293-TDO2 cells (Homo sapiens, UniProt P48775).
T2 construct: expressed in transfected cells; host or cells: HEK293 (ATCC), stably transfected
T2 sequence (P48775 whole entry): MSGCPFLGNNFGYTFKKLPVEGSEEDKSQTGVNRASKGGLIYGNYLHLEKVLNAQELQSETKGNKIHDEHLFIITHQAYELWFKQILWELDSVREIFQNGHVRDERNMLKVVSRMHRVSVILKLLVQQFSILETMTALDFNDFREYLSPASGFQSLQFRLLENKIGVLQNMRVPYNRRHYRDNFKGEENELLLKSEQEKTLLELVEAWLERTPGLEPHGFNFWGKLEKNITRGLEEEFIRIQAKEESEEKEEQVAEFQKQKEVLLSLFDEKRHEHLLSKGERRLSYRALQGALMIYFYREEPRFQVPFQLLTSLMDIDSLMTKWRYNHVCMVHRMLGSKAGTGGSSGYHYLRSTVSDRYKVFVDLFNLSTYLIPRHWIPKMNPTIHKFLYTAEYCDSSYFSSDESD
The experiment in a line: 293-TDO2 cell-based TDO2 Kyn (kynurenine) production assay. In a few lines: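 HEK293 cells stably transfected to express tryptophan 2,3-dioxygenase were seeded at 10000 per well in 96-well plates in phenol red-free DMEM with 10% FBS. After 4 hours, DMSO-diluted compound dilutions were added, and cells were kept 48 hours at 37 °C, 5% CO2. Supernatant was deproteinised with trichloroacetic acid, and kynurenine was measured at 480 nm after adding 2% 4-(dimethylamino)benzaldehyde. Potency came from four-parameter logistic fits in XLfit.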

For experiment [3], the target named is T3, TDO (Homo sapiens, UniProt P48775).
T3 construct: His tag (C); made in house; host or cells: E. coli
T3 sequence (P48775 whole entry): as above
The experiment in a line: TDO enzymatic assay. Format: biochemical. The conditions noted are these: read-out: Enzyme IC50 TDO. The method, boiled down: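 Recombinant C-terminally His-tagged TDO purified from E. coli (100 nM) was tested with 0.5 mM L-tryptophan (Km concentration). Otherwise the IDO1 enzymatic set-up was used: ascorbic acid, methylene blue, catalase, and potassium phosphate pH 7.5 with BSA, incubated 1.5 hours. N'-formylkynurenine absorbance was read continuously at 321 nm, and activity was taken as the slope. IC50 was calculated from remaining enzyme activity across increasing compound concentrations.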

The target of experiment [4] is T4, IDO1 (Homo sapiens, UniProt P14902). The experiment in a line: Hela cell-based IDO1 assay. The conditions noted are these: Hela cells. The method, boiled down: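 HeLa cells were plated at 8000 per well in 96-well plates containing phenol red-free DMEM with 10% FBS, and after 4 hours compound dilutions made in DMSO were added together with IFN-γ (final 100 ng/mL) and 0.4 mM L-Trp before 48 hours at 37 °C, 5% CO2. Supernatants were deproteinised with trichloroacetic acid, mixed with 2% 4-(dimethylamino)benzaldehyde and read at 480 nm for kynurenine. Four-parameter logistic fits were run in XLfit. Potency was derived from these fits.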
T4 sequence (P14902 whole entry): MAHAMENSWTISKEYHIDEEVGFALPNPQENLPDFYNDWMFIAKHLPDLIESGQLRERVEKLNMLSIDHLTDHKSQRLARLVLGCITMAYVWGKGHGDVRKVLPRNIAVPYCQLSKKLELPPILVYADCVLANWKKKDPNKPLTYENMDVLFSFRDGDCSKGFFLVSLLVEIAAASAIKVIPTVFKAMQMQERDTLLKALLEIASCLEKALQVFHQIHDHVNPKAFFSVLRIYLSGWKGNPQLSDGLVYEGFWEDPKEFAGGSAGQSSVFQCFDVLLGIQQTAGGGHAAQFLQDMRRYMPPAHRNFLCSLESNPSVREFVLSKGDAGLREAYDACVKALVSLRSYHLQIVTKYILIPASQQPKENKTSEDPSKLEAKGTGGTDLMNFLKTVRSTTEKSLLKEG

For experiment [5], the target named is T5, cellular TDO2 in HEK293-TDO2 cells (Homo sapiens, UniProt P48775).
T5 construct: expressed in transfected cells; host or cells: HEK293 (ATCC), stably transfected
T5 sequence (P48775 whole entry): as the sequence (P48775 whole entry) above
The experiment in a line: 293-TDO2 cell-based assay (Kyn colorimetric). The conditions noted are these: 48 hours of incubation. The method, boiled down:
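Kyn formed from L-Trp was read colorimetrically at 480 nm (TCA deproteinisation, then 2% 4-(dimethylamino)benzaldehyde). Compounds were added to 293-TDO2 cells 4 h post-seeding and left 48 h at 37° C. A four-parameter logistic model gave IC50 values.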

Experiment [6] addresses T4, IDO1. The experiment in a line: IDO1 enzymatic assay. Format: biochemical. Also on record: His tag (N); made in house; host or cells: E. coli. The conditions noted are these: recombinant IDO1, 1.3 mM D-tryptophan. How it is done:
Recombinant IDO1 was overexpressed and purified from E. coli cells with an N-terminal His tag. IDO1 enzymatic assay was carried out using a methodology similar to described in the literature (J. Biol. Chem. (1980), 255, 1339-1345.). The reaction mixture contains 50 nM IDO1, 1.3 mM D-tryptophan, 5 mM L-ascorbic acid, […] methylene Blue, 0.4 mg/mL catalase and compound (or DMSO) in a buffer containing 50 mM potassium phosphate pH 7.5 and 0.1% BSA. After incubation at 24′C for 1.5 hours, absorbance of the reaction mixture was continuously read at 321 nm to monitor the formation of N′-formylkynurenine by a FULOstar OMEGA plate reader (BMG LABTECH) for 1 hour. The enzymatic activity was determined by measuring the slope of the linear absorbance increase as a function of time. The IC50s are calculated based on remaining enzyme activity in the presence of increasing concentrations of compounds.

In experiment [7] the target is T4, IDO1. The experiment in a line: IDO1 enzymatic assay. Format: biochemical. On the set-up: His tag (N); made in house; host or cells: E. coli. As to conditions: read-out: Enzyme IC50 IDO1. In a few lines: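 Recombinant IDO1 carrying an N-terminal His tag and purified from E. coli was used at 50 nM with test compound, 1.3 mM D-tryptophan, 5 mM L-ascorbic acid, methylene blue and 0.4 mg/mL catalase in 50 mM potassium phosphate pH 7.5 containing 0.1% BSA. This mixture was incubated at 24 °C for 1.5 hours, after which N'-formylkynurenine formation was followed continuously at 321 nm for 1 hour and activity was taken as the slope. IC50 was derived from the enzyme activity remaining as compound concentration increased.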

T1 sequence (P14902 whole entry): as the sequence (P14902 whole entry) above

Take `OC(c1c(C2CC2)ccc2cncn12)[C@H]1CC[C@H](c2ccc(Cl)cc2)CC1` (single isomer, unassigned) [Example D103c]: the EC50 (as a rule, the midpoint of the concentration-response curve) in experiment [1] was 130 nM; in experiment [2] it was greater than 10000 nM; in experiment [4] it was 131 nM; in experiment [5] it was greater than 10000 nM. Besides, the 50% inhibitory concentration (IC50) (commonly the concentration that gives 50% inhibition) in experiment [3] was 8100 nM; in experiment [6], 22 nM; in experiment [7], 22 nM.
In the case of `OC(c1c(C2CC2)ccc2cncn12)[C@H]1CC[C@@H](c2ccc(Cl)cc2)CC1` (single isomer, unassigned) [Example D103d], the EC50 in experiment [1] and in experiment [2] was greater than 10000 nM in each case. The IC50 in experiment [6] and in experiment [7] was 67 nM each time.
